Two molecules from ChEMBL document CHEMBL4800727 (2021) can be followed below.

Data set [1] addresses GABA-A receptor; anion channel. The data set is described as follows: GPCRScan assay: inhibition of GABAA. It is filed as protein-complex assay, Rattus norvegicus. Also on record: radioligand conc. used [nm] 9.50 – 25.0, parental cells brain tissue.
In data set [2] the target is cAMP and cAMP-inhibited cGMP 3',5'-cyclic phosphodiesterase 10A (Homo sapiens, UniProt Q9Y233). The data set is described as follows: In vitro assay with human PDE10A.
cAMP and cAMP-inhibited cGMP 3',5'-cyclic phosphodiesterase 10A, sequence (Q9Y233 whole entry): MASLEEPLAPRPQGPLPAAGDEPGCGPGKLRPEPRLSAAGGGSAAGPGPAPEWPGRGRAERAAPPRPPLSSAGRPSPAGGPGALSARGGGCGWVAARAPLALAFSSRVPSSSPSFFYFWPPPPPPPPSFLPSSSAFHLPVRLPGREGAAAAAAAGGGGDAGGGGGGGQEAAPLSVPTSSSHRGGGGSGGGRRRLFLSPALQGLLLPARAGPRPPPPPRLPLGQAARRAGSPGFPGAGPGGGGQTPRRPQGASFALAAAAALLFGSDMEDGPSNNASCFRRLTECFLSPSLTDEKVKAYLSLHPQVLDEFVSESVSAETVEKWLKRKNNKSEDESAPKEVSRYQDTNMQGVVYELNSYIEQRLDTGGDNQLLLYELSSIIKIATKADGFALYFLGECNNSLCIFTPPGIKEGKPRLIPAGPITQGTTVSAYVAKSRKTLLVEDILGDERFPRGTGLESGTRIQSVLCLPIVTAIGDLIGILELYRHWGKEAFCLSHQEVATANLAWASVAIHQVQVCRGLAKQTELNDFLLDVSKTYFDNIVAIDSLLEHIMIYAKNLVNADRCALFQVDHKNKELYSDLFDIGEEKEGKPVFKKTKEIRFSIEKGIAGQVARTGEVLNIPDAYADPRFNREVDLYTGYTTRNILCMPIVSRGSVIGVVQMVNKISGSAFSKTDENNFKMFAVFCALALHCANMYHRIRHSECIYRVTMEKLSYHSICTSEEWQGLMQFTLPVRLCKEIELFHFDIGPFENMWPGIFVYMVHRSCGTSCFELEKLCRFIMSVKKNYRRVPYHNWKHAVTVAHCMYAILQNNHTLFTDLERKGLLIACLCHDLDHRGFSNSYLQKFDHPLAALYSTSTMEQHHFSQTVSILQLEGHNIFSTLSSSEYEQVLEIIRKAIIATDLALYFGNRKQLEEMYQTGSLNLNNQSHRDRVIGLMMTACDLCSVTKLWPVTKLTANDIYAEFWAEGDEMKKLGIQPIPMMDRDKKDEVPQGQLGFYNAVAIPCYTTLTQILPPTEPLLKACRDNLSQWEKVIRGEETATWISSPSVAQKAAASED
For data set [3], the target named is Alpha-2B adrenergic receptor (Homo sapiens, UniProt P18089). The data set is described as follows: GPCRScan assay: inhibition of Alpha2B. Also on record: radioligand conc. used [nm] 1.5 – 2.0, parental cells HEKT.
Alpha-2B adrenergic receptor, sequence (P18089 whole entry): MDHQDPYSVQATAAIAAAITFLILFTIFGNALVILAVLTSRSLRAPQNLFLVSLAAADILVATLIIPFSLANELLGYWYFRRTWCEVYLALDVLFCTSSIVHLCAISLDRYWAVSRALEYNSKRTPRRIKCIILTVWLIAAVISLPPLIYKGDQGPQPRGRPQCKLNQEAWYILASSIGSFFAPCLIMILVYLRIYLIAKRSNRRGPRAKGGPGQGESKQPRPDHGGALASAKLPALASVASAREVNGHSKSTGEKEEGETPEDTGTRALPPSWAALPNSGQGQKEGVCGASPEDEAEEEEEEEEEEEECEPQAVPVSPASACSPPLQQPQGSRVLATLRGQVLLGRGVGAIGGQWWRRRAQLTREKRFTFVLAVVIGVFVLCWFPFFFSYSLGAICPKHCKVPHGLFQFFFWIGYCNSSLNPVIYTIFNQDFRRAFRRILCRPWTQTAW
Data set [4] deals with Cyclin-dependent kinase 2/cyclin A (Homo sapiens) (UniProt P24941+P20248+P78396). The experiment in a line: cyclin-dependent kinase 2 / clyclinA Millipore kinase panel. It is filed as protein-complex assay. The conditions noted are these: Compound concentration 10.0 uM.
The target in data set [5] is Cyclin-dependent kinase 2/cyclin E (Homo sapiens) (UniProt P24864+P24941+O96020). The experiment in a line: cyclin-dependent kinase 2 /clyclinE Millipore kinase panel. To be noted: Compound concentration 10.0 uM. It is filed as protein-complex assay.
Data set [6] deals with Ephrin type-A receptor 5 (Homo sapiens) (UniProt P54756). The experiment in a line: EPH receptor A5 Millipore kinase panel. The conditions noted are these: Compound concentration 10.0 uM.
In data set [7] the target is Ephrin type-B receptor 3 (Homo sapiens) (UniProt P54753). The data set is described as follows: EPH receptor B3 Millipore kinase panel. The conditions noted are these: Compound concentration 10.0 uM.
Data set [8] addresses Eukaryotic elongation factor 2 kinase (Homo sapiens) (UniProt O00418). The experiment in a line: eukaryotic elongation factor-2 kinase Millipore kinase panel. To be noted: Compound concentration 10.0 uM.
Data set [9] has as its target Tyrosine-protein kinase FRK (Homo sapiens) (UniProt P42685). The data set is described as follows: fyn-related kinase Millipore kinase panel. The conditions noted are these: Compound concentration 10.0 uM.
The target in data set [10] is Macrophage-stimulating protein receptor (Homo sapiens) (UniProt Q04912). The data set is described as follows: macrophage stimulating 1 receptor Millipore kinase panel. The conditions noted are these: Compound concentration 10.0 uM.
In data set [11] the target is Serine/threonine-protein kinase MARK2 (Homo sapiens) (UniProt Q7KZI7). The experiment in a line: MAP/microtubule affinity-regulating kinase 2 Millipore kinase panel. To be noted: Compound concentration 10.0 uM.
Serine/threonine-protein kinase MARK2 (Homo sapiens), sequence (Q7KZI7 whole entry): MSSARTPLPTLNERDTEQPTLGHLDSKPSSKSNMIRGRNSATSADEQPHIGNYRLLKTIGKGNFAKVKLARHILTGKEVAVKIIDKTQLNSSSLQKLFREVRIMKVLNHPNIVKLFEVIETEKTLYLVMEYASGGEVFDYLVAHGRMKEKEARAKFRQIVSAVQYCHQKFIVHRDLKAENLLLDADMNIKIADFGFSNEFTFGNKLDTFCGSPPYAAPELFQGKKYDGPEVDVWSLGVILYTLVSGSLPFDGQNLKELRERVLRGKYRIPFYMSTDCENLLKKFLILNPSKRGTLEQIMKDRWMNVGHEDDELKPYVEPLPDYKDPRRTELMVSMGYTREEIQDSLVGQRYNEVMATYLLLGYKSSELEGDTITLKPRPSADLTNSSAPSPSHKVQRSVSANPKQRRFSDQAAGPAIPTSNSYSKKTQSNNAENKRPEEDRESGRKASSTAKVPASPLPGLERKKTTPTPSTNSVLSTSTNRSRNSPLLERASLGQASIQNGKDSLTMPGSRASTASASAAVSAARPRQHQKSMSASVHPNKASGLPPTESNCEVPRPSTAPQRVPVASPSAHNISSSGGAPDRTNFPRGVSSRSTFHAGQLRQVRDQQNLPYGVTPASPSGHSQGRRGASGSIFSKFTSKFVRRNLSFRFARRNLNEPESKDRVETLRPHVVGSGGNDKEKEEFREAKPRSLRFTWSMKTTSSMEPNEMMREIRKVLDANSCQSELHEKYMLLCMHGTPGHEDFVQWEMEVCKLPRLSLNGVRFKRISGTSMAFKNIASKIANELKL
The target in data set [12] is Serine/threonine-protein kinase mTOR (Homo sapiens) (UniProt P42345). The experiment in a line: mechanistic target of rapamycin Millipore kinase panel. The conditions noted are these: Compound concentration 10.0 uM.
Data set [13] deals with Hepatocyte growth factor receptor (Homo sapiens) (UniProt P08581). The data set is described as follows: met proto-oncogene Millipore kinase panel. To be noted: Compound concentration 10.0 uM.
The target in data set [14] is MAP kinase-activated protein kinase 3 (Homo sapiens) (UniProt Q16644). The data set is described as follows: mitogen-activated protein kinase-activated protein kinase 3 Millipore kinase panel. The conditions noted are these: Compound concentration 10.0 uM.
Data set [15] has as its target Mitogen-activated protein kinase 1 (Homo sapiens) (UniProt P28482). The data set is described as follows: mitogen-activated protein kinase 1 (MAPK2) Millipore kinase panel. To be noted: Compound concentration 10.0 uM.
The target in data set [16] is Serine/threonine-protein kinase Nek2 (Homo sapiens) (UniProt P51955). The data set is described as follows: NIMA -related kinase 2 Millipore kinase panel. To be noted: Compound concentration 10.0 uM.
The target in data set [17] is Serine/threonine-protein kinase Nek6 (Homo sapiens) (UniProt Q9HC98). The experiment in a line: NIMA -related kinase 6 Millipore kinase panel. The conditions noted are these: Compound concentration 10.0 uM.
Serine/threonine-protein kinase Nek6 (Homo sapiens), sequence (Q9HC98 whole entry, canonical isoform): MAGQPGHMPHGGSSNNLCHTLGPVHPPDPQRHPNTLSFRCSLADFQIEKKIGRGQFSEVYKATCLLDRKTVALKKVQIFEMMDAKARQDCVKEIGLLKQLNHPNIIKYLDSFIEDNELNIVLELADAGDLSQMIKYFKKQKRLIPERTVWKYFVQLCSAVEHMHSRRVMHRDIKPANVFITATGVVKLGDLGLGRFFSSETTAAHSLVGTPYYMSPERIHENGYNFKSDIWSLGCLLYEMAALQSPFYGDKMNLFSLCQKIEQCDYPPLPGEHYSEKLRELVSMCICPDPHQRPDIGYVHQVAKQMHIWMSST
The target of data set [18] is Phosphatidylinositol 4,5-bisphosphate 3-kinase catalytic subunit gamma isoform (Homo sapiens) (UniProt P48736). The data set is described as follows: phosphoinositide-3-kinase, catalytic, gamma polypeptide Millipore kinase panel. To be noted: Compound concentration 10.0 uM.
Data set [19] deals with cGMP-dependent protein kinase 1 (Homo sapiens) (UniProt Q13976). The experiment in a line: protein kinase, cGMP-dependent, type I Millipore kinase panel. To be noted: Compound concentration 10.0 uM.
Data set [20] concerns the target cGMP-dependent protein kinase 2 (Homo sapiens) (UniProt Q13237). The data set is described as follows: protein kinase, cGMP-dependent, type II Millipore kinase panel. To be noted: Compound concentration 10.0 uM.
Data set [21] has as its target Receptor-interacting serine/threonine-protein kinase 2 (Homo sapiens) (UniProt O43353). The experiment in a line: receptor-interacting serine-threonine kinase 2 Millipore kinase panel. To be noted: Compound concentration 10.0 uM.
Data set [22] has as its target Serine/threonine-protein kinase 10 (Homo sapiens) (UniProt O94804). The experiment in a line: serine/threonine kinase 10 Millipore kinase panel. To be noted: Compound concentration 10.0 uM.
Data set [23] has as its target Toll-like receptor 4 (Homo sapiens) (UniProt O00206). The experiment in a line: Toll like receptor 4 Millipore kinase panel. To be noted: Compound concentration 10.0 uM.
Data set [24] addresses Tyrosine-protein kinase TXK (Homo sapiens) (UniProt P42681). The data set is described as follows: TXK tyrosine kinase Millipore kinase panel. To be noted: Compound concentration 10.0 uM.
Data set [25] concerns the target Tyrosine-protein kinase ABL2 (Homo sapiens) (UniProt P42684). The data set is described as follows: v-abl Abelson murine leukemia viral oncogene homolog 2 Millipore kinase panel. To be noted: Compound concentration 10.0 uM.
In data set [26] the target is RAC-gamma serine/threonine-protein kinase (Homo sapiens) (UniProt Q9Y243). The experiment in a line: v-akt murine thymoma viral oncogene homolog 3 Millipore kinase panel. The conditions noted are these: Compound concentration 10.0 uM.
The target of data set [27] is Receptor tyrosine-protein kinase erbB-4 (Homo sapiens) (UniProt Q15303). The data set is described as follows: v-erb-a erythroblastic leukemia viral oncogene homolog 4 Millipore kinase panel. To be noted: Compound concentration 10.0 uM.
Data set [28] addresses cGMP-specific 3',5'-cyclic phosphodiesterase (Homo sapiens, UniProt O76074). The data set is described as follows: hPDE5A3 PDE scan.
The target of data set [29] is Rod cGMP-specific 3',5'-cyclic phosphodiesterase subunit alpha (Homo sapiens, UniProt P16499). The data set is described as follows: hPDE6AB PDE scan.
For data set [30], the species on record is Rattus norvegicus. The data set is described as follows: rNa channel Cerep panel. The conditions noted are these: Compound concentration 10.0 uM.
Data set [31] has as its target Adenosine receptor A2a (Homo sapiens) (UniProt P29274). The data set is described as follows: hA2A Cerep panel. The conditions noted are these: Compound concentration 10.0 uM.
In data set [32] the target is B2 bradykinin receptor (Homo sapiens) (UniProt P30411). The experiment in a line: hBK2 Cerep panel. The conditions noted are these: Compound concentration 10.0 uM.
B2 bradykinin receptor (Homo sapiens), sequence (P30411 whole entry): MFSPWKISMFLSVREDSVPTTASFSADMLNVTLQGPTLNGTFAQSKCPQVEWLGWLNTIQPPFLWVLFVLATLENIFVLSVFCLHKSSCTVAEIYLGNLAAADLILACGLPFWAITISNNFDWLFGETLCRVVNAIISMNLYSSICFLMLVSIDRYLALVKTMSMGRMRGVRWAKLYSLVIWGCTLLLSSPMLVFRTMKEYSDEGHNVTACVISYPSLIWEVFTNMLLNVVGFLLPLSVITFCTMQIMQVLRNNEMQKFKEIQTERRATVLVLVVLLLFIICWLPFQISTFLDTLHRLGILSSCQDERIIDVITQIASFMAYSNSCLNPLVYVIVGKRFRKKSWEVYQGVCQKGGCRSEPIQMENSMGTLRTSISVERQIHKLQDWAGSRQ
For data set [33], the target named is Endothelin-1 receptor (Homo sapiens) (UniProt P25101). The data set is described as follows: hETA Cerep panel. To be noted: Compound concentration 10.0 uM.
Endothelin-1 receptor (Homo sapiens), sequence (P25101 whole entry): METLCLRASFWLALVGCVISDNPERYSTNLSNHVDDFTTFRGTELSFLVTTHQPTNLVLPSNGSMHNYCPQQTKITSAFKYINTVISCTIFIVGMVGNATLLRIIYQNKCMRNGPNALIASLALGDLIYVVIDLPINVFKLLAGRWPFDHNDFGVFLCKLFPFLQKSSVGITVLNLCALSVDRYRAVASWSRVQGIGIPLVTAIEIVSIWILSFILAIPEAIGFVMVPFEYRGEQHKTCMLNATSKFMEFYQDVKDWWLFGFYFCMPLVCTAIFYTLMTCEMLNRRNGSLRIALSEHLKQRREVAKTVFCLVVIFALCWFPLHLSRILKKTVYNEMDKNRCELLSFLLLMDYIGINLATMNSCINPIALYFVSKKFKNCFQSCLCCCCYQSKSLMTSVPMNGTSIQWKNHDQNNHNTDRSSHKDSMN
For data set [34], the species on record is Rattus norvegicus. The data set is described as follows: rGABA Cerep panel. To be noted: Compound concentration 10.0 uM.
For data set [35], the target named is Neuromedin-K receptor (Homo sapiens) (UniProt P29371). The data set is described as follows: hNK3 Cerep panel. To be noted: Compound concentration 10.0 uM.
Data set [36] addresses T1, 5-hydroxytryptamine receptor 1A (Homo sapiens) (UniProt P08908).
T1 sequence (whole entry): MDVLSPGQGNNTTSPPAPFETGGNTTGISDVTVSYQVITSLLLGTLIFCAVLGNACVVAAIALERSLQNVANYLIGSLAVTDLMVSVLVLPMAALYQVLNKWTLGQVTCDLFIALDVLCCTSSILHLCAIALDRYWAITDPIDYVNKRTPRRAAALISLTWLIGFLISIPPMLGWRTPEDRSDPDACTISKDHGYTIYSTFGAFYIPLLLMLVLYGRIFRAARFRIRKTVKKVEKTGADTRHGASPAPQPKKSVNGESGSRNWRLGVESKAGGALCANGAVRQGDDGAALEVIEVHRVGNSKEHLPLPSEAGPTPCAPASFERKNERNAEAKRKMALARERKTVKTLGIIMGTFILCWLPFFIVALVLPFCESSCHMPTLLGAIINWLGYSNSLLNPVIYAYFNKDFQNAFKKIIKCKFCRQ
The data set is described as follows: h5HT1A Cerep panel. To be noted: Compound concentration 10.0 uM.

Data set [37] has as its target 5-hydroxytryptamine receptor 5A (Homo sapiens) (UniProt P47898). The experiment in a line: h5HT5A Cerep panel. The conditions noted are these: Compound concentration 10.0 uM.
The species entered for data set [38] is Rattus norvegicus. The data set is described as follows: rCL channel Cerep panel. The conditions noted are these: Compound concentration 10.0 uM.
The target in data set [39] is Amine oxidase [flavin-containing] A (Homo sapiens, UniProt P21397). The experiment in a line: hMAOA Cerep panel. The conditions noted are these: 10 µM, compound concentration 10 uM.
Data set [40] deals with Histamine H1 receptor (Homo sapiens) (UniProt P35367). The data set is described as follows: hH1 Cerep panel. To be noted: Compound concentration 10.0 uM.
Histamine H1 receptor (Homo sapiens), sequence (P35367 whole entry): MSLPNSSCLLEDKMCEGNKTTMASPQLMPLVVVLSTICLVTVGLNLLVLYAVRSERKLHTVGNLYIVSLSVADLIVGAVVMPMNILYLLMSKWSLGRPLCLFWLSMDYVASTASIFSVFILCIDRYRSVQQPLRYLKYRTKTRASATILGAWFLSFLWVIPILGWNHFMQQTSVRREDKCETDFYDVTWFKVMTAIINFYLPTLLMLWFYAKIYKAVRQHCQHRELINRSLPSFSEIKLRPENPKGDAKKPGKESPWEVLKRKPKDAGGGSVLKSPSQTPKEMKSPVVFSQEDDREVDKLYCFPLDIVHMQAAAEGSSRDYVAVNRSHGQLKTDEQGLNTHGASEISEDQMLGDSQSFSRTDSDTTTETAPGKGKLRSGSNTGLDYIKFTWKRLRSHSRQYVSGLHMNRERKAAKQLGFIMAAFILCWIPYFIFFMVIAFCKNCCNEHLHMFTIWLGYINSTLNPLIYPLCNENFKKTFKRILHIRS
Data set [41] addresses 3',5'-cyclic-AMP phosphodiesterase 4D (Homo sapiens, UniProt Q08499). The experiment in a line: hPDE4D2 Cerep panel. The conditions noted are these: Compound concentration 10.0 uM.
For data set [42], the target named is D(1B) dopamine receptor (Homo sapiens) (UniProt P21918). The conditions noted are these: Compound concentration 10.0 uM.
Data set [43] has as its target Histamine H2 receptor (Homo sapiens) (UniProt P25021). The conditions noted are these: Compound concentration 10.0 uM.
Data set [44] addresses cAMP and cAMP-inhibited cGMP 3',5'-cyclic phosphodiesterase 10A (Mus musculus) (UniProt Q8CA95).

Receptor-interacting serine/threonine-protein kinase 2 (Homo sapiens), sequence (O43353 whole entry): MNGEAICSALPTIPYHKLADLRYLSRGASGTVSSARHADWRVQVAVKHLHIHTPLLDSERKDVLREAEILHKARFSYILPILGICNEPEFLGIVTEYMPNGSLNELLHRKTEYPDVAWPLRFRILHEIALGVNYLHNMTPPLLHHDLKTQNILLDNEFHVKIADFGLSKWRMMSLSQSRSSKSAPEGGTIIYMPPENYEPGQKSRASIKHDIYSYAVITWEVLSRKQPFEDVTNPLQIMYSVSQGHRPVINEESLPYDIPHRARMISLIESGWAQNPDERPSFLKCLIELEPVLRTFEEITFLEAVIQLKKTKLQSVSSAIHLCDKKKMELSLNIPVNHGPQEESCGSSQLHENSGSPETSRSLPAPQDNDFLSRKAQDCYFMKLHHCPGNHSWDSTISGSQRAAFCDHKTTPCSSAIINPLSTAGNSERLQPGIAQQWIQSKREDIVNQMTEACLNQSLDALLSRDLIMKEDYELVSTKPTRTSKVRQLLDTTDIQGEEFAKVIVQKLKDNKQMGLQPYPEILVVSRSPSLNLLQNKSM
Histamine H2 receptor (Homo sapiens), sequence (P25021 whole entry): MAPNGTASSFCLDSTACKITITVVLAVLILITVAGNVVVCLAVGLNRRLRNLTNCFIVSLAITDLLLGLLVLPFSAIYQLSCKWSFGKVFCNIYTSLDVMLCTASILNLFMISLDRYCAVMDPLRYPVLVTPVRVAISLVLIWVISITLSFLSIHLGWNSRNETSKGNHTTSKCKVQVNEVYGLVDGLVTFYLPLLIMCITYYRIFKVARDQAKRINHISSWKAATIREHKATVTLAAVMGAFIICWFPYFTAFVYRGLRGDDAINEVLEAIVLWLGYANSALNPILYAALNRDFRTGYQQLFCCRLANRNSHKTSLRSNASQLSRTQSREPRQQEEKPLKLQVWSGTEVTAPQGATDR

As a reminder, the Ki is the equilibrium dissociation constant of an inhibitor or competing ligand from its target. As usually defined, the IC50 is the midpoint of a concentration-inhibition curve. Low readings indicate inhibition by little substance, high ones a need for much substance. For the molecule `c1ccc(C2CCN(c3cnc4c(N5CCOCC5)nccn34)CC2)cc1`, the Ki in data set [1] turned out to be 1.82 µM. Besides, the IC50 in [2] is reported as > 10 µM (not active).
The pKi is −log10 of the Ki, conventionally taken in molar units. Usually inhibition stands for the relative decrease from the control value, in per cent. `COCCc1ccc(-c2c(C)nc3c(N4CCOCC4)ccnn23)cn1` [JNJ-42396302]: the Ki in [3] was over 10 µM; in data set [28], 8.5 µM; in data set [29], 85 µM. Also, the pKi in data set [3] is under 5. In addition, the inhibition in data set [4] was 2%; in data set [5] it was 1%; in data set [6] it was -9%; in data set [7] it was 3%; in data set [8] it was -2%; in data set [9], -7%. Moreover, the inhibition in data set [10] was 3%; in data set [11], 9%; in [12], 1%; in data set [13], -6%; in data set [14], 3%; in data set [15] it was 4%. Moreover, the inhibition was -1% in data set [16]; 1% in data set [17]; -4% in [18]; 2% in [19]; 1% in data set [20]; -6% in data set [21]. Moreover, the inhibition in data set [22] is 0%; in data set [23], -5.24%; in data set [24] it was 6%; in data set [25], 6%; in data set [26], 24%; in [27] it was 9%. Moreover, the inhibition is 25.3% in [42] and 12.9% in data set [43]. The effect in data set [30] was -5.55%; in [31], 17.8%; in data set [32], 7.1%; in data set [33], 5.55%; in [34], 21.1%; in data set [35], -8.65%. In addition, the effect in [36] was 8.65%; in data set [37], 5.7%; in data set [38], -12.3%; in [39], 13.8%; in [40], 2.05%; in [41] it was 27.3%. The Increase in cAMP in data set [44] was 10 fold.
